These results are taken from US20240247318A1, “METHODS FOR DETECTING INACTIVATION OF THE HOMOLOGOUS REC[…] (BRCA1/2) IN HUMAN TUMORS” (Institute Curie, priority 2012, published 2024).

SMILES strings stand for the structures.

The subject of this assay is triple-negative breast tumors. Kind of assay: clinical trial of Cisplatin treatment of patients with triple-negative breast tumors (GSE28330). It counts as in vivo, human. The conditions noted are these: number of patients. How it is done: Two publically available data sets from clinical trial of Cisplatin treatment of patients with triple-negative breast tumors [GSE28330 GEO database][59] were processed and the number of LST_10 Mb was calculated for each tumor with good quality of measured profile. Genomic profiles were measured by two types of chip: Affymetrix Oncoscan 70K (Dataset 2) and Oncoscan 300K (Dataset 1). Information about mutational status of BRCA1/2 was available for some tumors. Response to treatment was measured by Miller-Payne score, where 4 and 5 were considered as “positive response”, while scores<4 were considered as “no response” Case by case and summary results are presented in Table 2 and Tables 3-5 (statistical comparisons were performed by the Fisher exact test).

`N.N.[Cl][Pt][Cl]` [Cisplatin, cisplatin]: the “Non Responders” value stood at 8 (BRCA1/2 inactivated tumors), 15 (LST_high tumors (LST_10 Mb)), 20 (LST_low tumors (LST_10 Mb)) and 27 (NON BRCA1/2 or NA tumors). In addition, the Responders reads like this: (BRCA1/2 inactivated tumors) 9; (LST_high tumors (LST_10 Mb)) 18; (LST_low tumors (LST_10 Mb)) 1; (NON BRCA1/2 or NA tumors) 10.
